Columns and labels:
[1] = Stopped-flow kinetic analysis of tetrazines with eq-5-hydroxy-trans-cyclooctene in PBS buffer at 25° C.; settings: for k2, second order rate constant / kobs: PBS pH 7.4, 25° C.; for k2, second order rate constant: linear regression of kobs; for kobs: 0.025 mM tetrazine; for krel: relative to 5b, PBS, 25° C.
Method: Solutions (5 mL) of tetrazines 5b, 6c, 5l, 6a and 4f (0.050 mM) were prepared in PBS buffer (pH 7.4). Solutions (10 mL) of eq-5-hydroxy-trans-cyclooctene (0.50, 0.60, 0.70, 0.80 mM) were prepared in PBS buffer (pH 7.4). The reactions between tetrazines and trans-cyclooctene were measured under pseudo-first order conditions using SX 18MV-R stopped-flow spectrophotometer (Applied Photophysics Ltd.). Each solution of tetrazine and trans-cyclooctene were injected in equal volumes via 3 mL syringes into the stopped-flow instrument at 25° C., resulting in final concentration of 0.025 mM of tetrazines and 0.25, 0.30, 0.35, 0.40 mM trans-cyclooctene. The reaction was monitored by the decay of absorbance associated with the tetrazines (5b at 263 nm, 6c at 268 nm, 5l at 274 nm, 6a at 296 nm, 4f at 266 nm). Reaction were repeated in triplicate. With Prism software, an observed rate constant, kobs, was obtained by nonlinear regression. Second order rate constants, k2, were calculated by linear regression between kobs and final concentration of trans-cyclooctene.

[2] = Tetrazine stability in PBS buffer in ambient light at 25° C.; type: physicochemical; settings: PBS buffer pH 7.4, ambient light, day 0-5
Method: Solutions (3 mL) of tetrazine 5b, 5l and 6c (400 μM) were prepared in PBS buffer (pH 7.4) in vials and stored in ambient light at 25° C. Tetrazine concentrations were determined by recording the absorbance at 518 nm (6c) and 520 nm (5b and 5l) in cuvettes in day 0, 1, 3 and 5. A solution of 6a (50 μM) was prepared in PBS buffer (pH 7.4) in vials and stored in ambient light at room temperature. Tetrazine concentration was determined by recording the absorbance at 520 nm in cuvettes at day 0, 1, 3 and 5.

[3] = Tetrazine stability in Opti-MEM media in ambient light at 25° C.; type: physicochemical; settings: 400 μM
Method: Solutions (10 mL) of tetrazine 5b and 6c (400 μM) were prepared in Opti-MEM media in vials and stored in ambient light at 25° C. 2 mL of solution was extracted by 2 mL of Et2O in different time point. Tetrazine concentrations were determined by recording the absorbance of Et2O at 545 nm.

[4] = Experimental log P; type: physicochemical
[5] = molecular target: T1, human MAGL enzyme (Homo sapiens, UniProt Q99685); test: MAGL in vitro activity assay (7-HCA substrate, fluorescence); type: biochemical; settings: human MAGL pre-treated 30 min at room temperature, 7-HCA substrate 1 h; read-out: IC50, inhibition of MAGL activity in vitro
T1 sequence (Q99685 1-303): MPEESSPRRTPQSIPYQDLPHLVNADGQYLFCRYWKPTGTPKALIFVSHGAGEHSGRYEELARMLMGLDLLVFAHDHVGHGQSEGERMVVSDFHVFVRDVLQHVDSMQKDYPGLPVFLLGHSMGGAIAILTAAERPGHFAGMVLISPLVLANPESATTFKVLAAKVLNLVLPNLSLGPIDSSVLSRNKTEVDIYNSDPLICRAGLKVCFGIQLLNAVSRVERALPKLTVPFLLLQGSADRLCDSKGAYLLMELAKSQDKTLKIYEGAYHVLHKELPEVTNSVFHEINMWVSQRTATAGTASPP
Method: MAGL in vitro activity assay. The MAGL in vitro activity assay was performed based on a reported protocol. Briefly, human MAGL enzyme was pre-treated with compounds at room temperature for 30 min, and subsequently incubated with 7-hydroxycoumarinyl arachidonate (7-HCA) as a substrate at room temperature for 1 h. The fluorescence signals were measured on an Envision plate reader (excitation 355 nm, emission 460 nm).

[6] = molecular target: T2, endogenous MAGL (Homo sapiens, UniProt Q99685); test: Labeling of endogenous MAGL in live cells, gel-based ABPP with TCO-TAMRA; type: cell-based; settings: human brain vascular pericytes, probe 1 h, 2 μM TCO-TAMRA 30 min
T2 sequence (Q99685 1-303): T1 sequence (Q99685 1-303)
Method: Cell culture and probe treatment. Human brain vascular pericytes were cultured in Dulbecco's Modified Eagle Medium/Nutrient Mixture F-12 (DMEM/F-12) GlutaMAX media supplemented with 5% heat-inactivated fetal bovine serum (HI FBS), 1× pericyte growth supplement (PGS), and 1× penicillin-streptomycin at 37° C. with 5% CO2 in a humidified environment. Probe treatment was performed in duplicates. Cells were plated in 6-well plates and cultured overnight in growth media. Live cells were then treated with 300 nM KML29 as a competitor compound (or DMSO as a control) at 37° C. for 1 h. Cells were subsequently treated with probe 9 (0.3 nM-3.2 μM) at 37° C. for 1 h (cells pre-treated with KML29 were treated with 32 nM of probe 9), after which the cells were washed with fresh growth media. The media were then placed with fresh media containing 2 μM of TCO-TAMRA, and the cells were incubated at 37° C. for 30 min. To quench the reaction, the media were replaced with PBS containing 100 μM tetrazine amine, and the cells were washed with cold PBS and harvested with a scrapper. The suspensions were centrifuged at 10,000×g for 1 min at 37° C., and the cell pellets were lysed in PBS containing 0.25% sodium dodecyl sulfate (SDS) with sonication. The protein concentration was measured with a bicinchoninic acid (BCA) assay kit (Thermo Scientific) and normalized. In-gel fluorescence and data analysis. The proteomes were analyzed with 1.0 mm thick 4-12% bis-tris 15-well protein gels in 2-(N-morpholino)ethanesulfonic acid (MES) buffer. The gels were scanned with a Typhoon FLA 9500 Biomolecular Imager (GE Healthcare) with the TAMRA channel with 532 nm excitation and a 575 nm long pass emission filter. To measure the total protein loading, the gels were treated with ClearPage Instant Blue (CBS Scientific) overnight, and after brief destaining with water, scanned with an Odyssey Imager (Li-COR) at the 700 nm channel. The in-gel fluorescence images were processed with ImageJ software (v1.47, NIH), and the intensities were quantified with Image Studio (v5.2, Li-COR) with background subtraction. The coomassie images were processed and quantified with the Image Studio software with background subtraction. For analysis of the cellular potency, the in-gel fluorescence intensities of the two MAGL bands were averaged, normalized with the total coomassie intensity of the corresponding sample, and fitted with a dose-response equation with Prism v7.02 (GraphPad). […] The media were then placed with fresh media containing 2 μM of TCO-TAMRA, and the cells were incubated at 37° C. for 30 min. […] The protein concentration was measured with a bicinchoninic acid (BCA) assay kit (Thermo Scientific) and normalized. In-gel fluorescence and data analysis. […]

[7] = test system: MAGL; test: Cellular labeling kinetics of TCO-TAMRA with MAGL probes in live human brain vascular pericytes; type: cell-based; settings: for extent of MAGL labeling at the probe concentration used: 100c 1 μM or 12 32 nM, 37° C., 1 h
Method: To measure the cellular labeling kinetics of TCO-TAMRA with 100c and 12, live cells were treated with 100c (1 μM) or 12 (32 nM) at 37° C. for 1 h. […] Subsequently, the cells were washed with fresh growth media, which were placed with fresh media containing 50 nM, 200 nM, or 2 μM of TCO-TAMRA, and the cells were incubated at 37° C. for 2, 5, 10, 15, 20, 30, and 60 min. To quench the reaction, the media were replaced with PBS containing 100 μM tetrazine amine, and the cells were washed with cold PBS and harvested with a scrapper.
The suspensions were centrifuged at 10,000×g for 1 min at 37° C., and the cell pellets were lysed in PBS containing 0.25% sodium dodecyl sulfate (SDS) with sonication. The protein concentration was measured with a bicinchoninic acid (BCA) assay kit (Thermo Scientific) and normalized.
In-gel fluorescence and data analysis. Same procedure as described in Example 17 was used.

[8] = Stopped-flow kinetic analysis of MAGL tetrazines with eq-5-hydroxy-trans-cyclooctene in MeOH at 25° C.; settings: for kobs: 0.04 mM tetrazine, 0.40 mM trans-cyclooctene, MeOH; for kobs / krel: 25° C.; for krel: relative to 12, MeOH
Method: Solutions (3 mL) of tetrazines 100a, 100b, 100c and 12 (0.080 mM) was prepared in MeOH. Solutions (3 mL) of eq-5-hydroxy-trans-cyclooctene (0.80 mM) were prepared in MeOH. The reactions between tetrazines and trans-cyclooctene were measured under pseudo-first order conditions using SX 18MV-R stopped-flow spectrophotometer (Applied Photophysics Ltd.). Each solution of tetrazine and trans-cyclooctene were injected in equal volumes via 3 mL syringes into the stopped-flow instrument at 25° C., resulting in final concentration of 0.04 mM of tetrazines and 0.40 mM trans-cyclooctene. The reaction was monitored by the decay of absorbance associated with the tetrazines (10a and 10b at 300 nm, 10c at 280 nm). Reaction were repeated in triplicate. With Prism software, an observed rate constant, kobs, was obtained by nonlinear regression.

[9] = 30° C. to 400/500° C. at 5° C./min
Method: DSC data was obtained on a Mettler-Toledo Differential Scanning Calorimeter 3+. Samples were loaded into a goldplated high-pressure pan, held at 30° C. for 10 minutes, then a gradient of 30° C. to 400/500° C. at 5° C./min.

| Compound | decomposition per day [2] | decomposition per day [3] | logP [4] | k2, second order rate constant [1] | kobs ([1]; TCO 0.25 mM) | kobs ([1]; TCO 0.30 mM) | kobs ([1]; TCO 0.35 mM) | kobs ([1]; TCO 0.40 mM) | krel [1] | extent of MAGL labeling at the probe concentration used [7] | kobs [8] | krel [8] | further results |
| --- | --- | --- | --- | --- | --- | --- | --- | --- | --- | --- | --- | --- | --- |
| COC(=O)CCc1nnc(-c2ccccc2)nn1 [5b, methyl 3-(6-phenyl-1,2,4,5-tetrazin-3-yl)propanoate] | 1.8% | 6.7% | 2.2 | 197.9 ± 13.36 M⁻¹ s⁻¹ | 0.57 s⁻¹ | 0.065 s⁻¹ | 0.075 s⁻¹ | 0.87 s⁻¹ | 1.0 | – | – | – | – |
| C=C(OCC)c1nnc(CCC(=O)OC)nn1 [6c, methyl 3-(6-(1-ethoxyvinyl)-1,2,4,5-tetrazin-3-yl)propanoate] | 3.9% | 10.8% | 0.89 | 833 ± 35.7 M⁻¹ s⁻¹ | 0.20 s⁻¹ | 0.24 s⁻¹ | 0.28 s⁻¹ | 0.33 s⁻¹ | 4.2 | – | – | – | times faster than 5b ([1]; reaction with 5-hydroxyTCO): 4.2 times |
| O=C(OC(C(F)(F)F)C(F)(F)F)N1CCC(CNS(=O)(=O)c2ccc(-c3nncnn3)cc2)CC1 [100c, 1,1,1,3,3,3-hexafluoropropan-2-yl 4-((4-(1,2,4,5-tetrazin-3-yl)phenylsulfonamido)methyl)piperidine-1-carboxylate] | – | – | – | – | – | – | – | – | – | full labeling of MAGL | 0.2011 s⁻¹ | 162 | IC50 [5]: 16 nM; labeling of MAGL by gel-based ABPP [6]: strong labeling of MAGL; time at which labeling was complete ([7]; 100c 1 μM 1 h, then 2 μM TCO-TAMRA, first data point): ≤ 2 min; times more reactive than 100b ([8]; stopped flow kinetics with 5-hydroxyTCO): 6.5 times |
| Cc1nnc(SCc2ccc(-c3ccccc3)cc2)nn1 [b-Tz, 3-([1,1′-biphenyl]-4-ylmethylthio)-6-methyl-1,2,4,5-tetrazine] | – | – | – | – | – | – | – | – | – | – | – | – | DSC onset temperature [9]: 170 °C; DSC transition enthalpy [9]: 900 J/g |
| Cc1nnc(-c2ccc(-n3ccc(C4CCN(C(=O)OC(C(F)(F)F)C(F)(F)F)CC4)n3)cc2)nn1 [compound 12, reference compound] | – | – | – | – | – | – | – | – | – | full labeling of MAGL | 0.001244 s⁻¹ | 1 | – |

Source: US11767302B2, “Reagents and methods for tetrazine synthesis” (University of Delaware, priority 2020, dated 2023)
